Experimental data published in patent publication US20120015901A1, “METHODS AND PREPARATIONS FOR PROTECTING CRITICALLY ILL PATIENTS” (priority 2009, published 2012).

What was measured:
[1] = tested on: chronologically aging wild type yeast cells; experiment: Yeast cell death and oxidative stress markers (DHE, Annexin V/PI); assay type: cell-based
Text: For chronological aging experiments, cultures were inoculated from fresh overnight cultures to OD600 of 0.1 (˜1·10^6 cells/ml) with culture volume being 10% of flask volume and aliquots were taken out to perform survival plating at indicated time points (Herker, at al. (2004) J. Cell Biol. 164, 501-507. Survival at day 1 of wild type control cultures was set to 100% and other samples calculated accordingly. If not otherwise indicated, representative aging experiments are shown with at least three independent samples (as indicated) aged at the same time, which have been repeated at least twice with similar outcome. In case of experiments with Δspe1 (FIG. 24 A-E), all strains were inoculated to 5·10^4 cells/ml. Upon deletion of both IKI3 and SAS3 we observed slight aggregation of cells possibly due to a defect in late budding events. Therefore, for calculation of survival rates in experiments using Δiki3Δsas3, cell numbers of each sample were determined after two pulse of sonication on ice with Sonifier 250 from Benson (Duty Cycle: 35; Output Control: 2.5). Tests for apoptotic (TUNEL and Annexin V staining) and necrotic (PI staining) markers as well as markers for oxidative stress (DHE staining) were performed as described in Dod et al. (1982) Eur J Biochem 121, 401-405). For quantifications using flow cytometry (BD FACSAria), 30,000 cells were evaluated and analyzed with BD FACSDiva software. Spermidine (S4139, Sigma, Austria) and putrescine (P5780, Sigma, Austria; 1 mM final concentration) were added to stationary cultures at day 1 of the aging experiments (24 h after inoculation). 1 M aqueous stock solution of spermidine was stored in one use aliquots at −20° C. for no longer than 1 month. For adjustment of extracellular pH (pHex) to 6 (±0.5), the required amount of sodium hydroxide was added 30 h after inoculation. […]
As a further marker for necrosis, nuclear release of the yeast HMGB1 homolog (Nhp6Ap) was monitored by epifluorescence microscopy of ectopically expressed chimeric fusion protein Nhp6Ap-EGFP. […]

[2] = tested on: chronologically aging wild type yeast cells; experiment: Spontaneous mutation frequency and budding index; assay type: cell-based; conditions: spermidine-treated cultures, 4 mM
Protocol: Spontaneous mutation frequency was determined based on the appearance of mutants able to form colonies on agar plates containing 60 mg/l L-canavanine sulfate according to Fabrizio et al. (Fabrizio et al. (2004) J Cell Biol 166, 1055-1067). Mutation rates were calculated per 10^6 living (colony forming on YEPD) cells. Budding index was assessed by counting the percentage of budded cells after 10 seconds of sonication on ice using Sonifier 250 from Benson (Duty Cycle: 35; Output Control: 2.5) in micrographs of no more than 40 cells. For each sample, at least 500 cells were evaluated.

[3] = spermidine treatment during chronological aging

**Q.** What does the source list for NCCCCNCCCN [spermidine]?
**A.** loss of membrane integrity (PI positivity and Annexin V+PI+) ([1]; after 18 days of aging, 50% without spermidine): less than 10%; externalization of phosphatidylserine (Annexin V+PI− cells), early apoptotic marker [1, 3]: remained largely unaltered; markers of necrosis and oxidative stress (DHE positivity) [1, 3]: drastically diminished; mutation frequency and budding index [2]: neither associated with an increased mutation frequency nor a higher budding index
